Consider 6 compounds from article PMC10222858 (Marine Drugs, 2023).

Each structure is given as a SMILES string. Where a SMILES comes first, the peptide text is derived from it. Bounds are passed on as bounds.

One experiment addresses rα6/α3β4 nAChRs (Rattus norvegicus, UniProt P04757+P12392+P43143). The experiment is described as follows: cell-based. The experiment is classed as cell-based.
In a further experiment the target is rα3β4 nAChRs (Rattus norvegicus, UniProt P04757+P12392). The experiment in a line: cell-based. The experiment is classed as cell-based.
rα3β4 nAChRs, sequence (P04757 26-499 limits assumed): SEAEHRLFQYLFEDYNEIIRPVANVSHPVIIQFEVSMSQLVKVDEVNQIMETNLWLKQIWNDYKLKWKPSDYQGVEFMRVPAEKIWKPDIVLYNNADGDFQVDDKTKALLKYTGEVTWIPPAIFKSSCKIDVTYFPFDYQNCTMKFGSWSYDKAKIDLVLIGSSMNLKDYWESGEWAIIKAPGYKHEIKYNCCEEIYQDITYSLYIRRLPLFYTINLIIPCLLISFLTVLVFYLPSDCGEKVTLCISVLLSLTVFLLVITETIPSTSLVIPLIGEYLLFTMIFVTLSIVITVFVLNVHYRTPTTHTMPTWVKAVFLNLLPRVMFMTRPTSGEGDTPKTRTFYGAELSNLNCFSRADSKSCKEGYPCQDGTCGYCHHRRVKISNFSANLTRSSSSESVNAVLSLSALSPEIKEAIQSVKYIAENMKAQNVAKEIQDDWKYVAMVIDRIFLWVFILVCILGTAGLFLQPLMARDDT
rα3β4 nAChRs, sequence (P12392 21-495 limits assumed): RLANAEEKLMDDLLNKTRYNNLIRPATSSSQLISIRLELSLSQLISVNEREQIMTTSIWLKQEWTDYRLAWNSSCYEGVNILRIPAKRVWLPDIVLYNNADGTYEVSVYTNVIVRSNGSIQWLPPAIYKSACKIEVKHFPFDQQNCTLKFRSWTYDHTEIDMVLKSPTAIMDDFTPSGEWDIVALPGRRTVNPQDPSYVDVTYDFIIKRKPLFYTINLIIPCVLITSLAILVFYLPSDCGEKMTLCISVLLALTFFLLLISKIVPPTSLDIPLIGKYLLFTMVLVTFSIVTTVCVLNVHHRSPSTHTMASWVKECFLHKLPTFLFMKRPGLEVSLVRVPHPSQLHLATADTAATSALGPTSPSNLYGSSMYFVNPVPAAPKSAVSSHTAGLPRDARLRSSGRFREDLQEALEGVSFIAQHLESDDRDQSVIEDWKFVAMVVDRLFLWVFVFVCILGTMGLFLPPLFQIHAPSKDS

rα6/α3β4 nAChRs, sequence (P04757 whole entry, looked up): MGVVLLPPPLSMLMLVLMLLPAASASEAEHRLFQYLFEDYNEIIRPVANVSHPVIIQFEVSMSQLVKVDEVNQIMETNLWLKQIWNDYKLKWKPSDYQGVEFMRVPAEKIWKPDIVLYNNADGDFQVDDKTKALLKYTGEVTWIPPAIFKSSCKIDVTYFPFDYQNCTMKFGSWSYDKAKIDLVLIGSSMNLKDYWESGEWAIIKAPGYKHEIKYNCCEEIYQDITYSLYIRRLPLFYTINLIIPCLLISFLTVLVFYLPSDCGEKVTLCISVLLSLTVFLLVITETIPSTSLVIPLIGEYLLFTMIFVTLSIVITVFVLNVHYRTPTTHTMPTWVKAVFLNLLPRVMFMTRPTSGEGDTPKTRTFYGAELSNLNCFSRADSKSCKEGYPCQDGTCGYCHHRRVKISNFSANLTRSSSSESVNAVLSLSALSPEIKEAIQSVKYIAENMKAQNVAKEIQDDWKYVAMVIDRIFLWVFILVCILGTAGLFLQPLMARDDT
rα6/α3β4 nAChRs, sequence (P12392 whole entry, looked up): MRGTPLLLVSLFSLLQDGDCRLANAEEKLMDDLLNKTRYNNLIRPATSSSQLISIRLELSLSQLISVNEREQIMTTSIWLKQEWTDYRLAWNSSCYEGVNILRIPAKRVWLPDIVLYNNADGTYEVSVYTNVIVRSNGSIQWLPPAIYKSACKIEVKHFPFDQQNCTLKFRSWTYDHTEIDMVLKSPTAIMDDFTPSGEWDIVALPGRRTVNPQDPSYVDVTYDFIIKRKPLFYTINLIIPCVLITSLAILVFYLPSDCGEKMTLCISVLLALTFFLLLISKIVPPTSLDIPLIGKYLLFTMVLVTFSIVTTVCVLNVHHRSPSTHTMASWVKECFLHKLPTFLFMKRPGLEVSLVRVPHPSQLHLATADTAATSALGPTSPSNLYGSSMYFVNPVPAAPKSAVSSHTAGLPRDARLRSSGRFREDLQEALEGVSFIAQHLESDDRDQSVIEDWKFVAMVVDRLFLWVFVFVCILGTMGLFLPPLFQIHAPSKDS
rα6/α3β4 nAChRs, sequence (P43143 whole entry, looked up): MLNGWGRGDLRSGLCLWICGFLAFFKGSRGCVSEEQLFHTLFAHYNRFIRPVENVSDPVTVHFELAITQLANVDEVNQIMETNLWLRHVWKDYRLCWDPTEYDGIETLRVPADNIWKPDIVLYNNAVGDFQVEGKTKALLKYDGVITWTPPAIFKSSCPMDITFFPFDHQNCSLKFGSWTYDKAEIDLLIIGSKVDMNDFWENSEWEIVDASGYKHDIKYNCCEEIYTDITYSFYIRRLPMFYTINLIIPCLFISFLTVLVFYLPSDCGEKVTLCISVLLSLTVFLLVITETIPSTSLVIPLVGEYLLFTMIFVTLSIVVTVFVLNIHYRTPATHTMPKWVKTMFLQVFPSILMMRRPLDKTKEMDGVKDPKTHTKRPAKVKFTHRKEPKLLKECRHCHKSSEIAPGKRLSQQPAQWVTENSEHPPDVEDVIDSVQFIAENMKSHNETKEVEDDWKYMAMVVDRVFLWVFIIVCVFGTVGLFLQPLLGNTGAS

Regarding `CC[C@H](C)[C@@H]1NC(=O)[C@@H]2CCCN2C(=O)[C@H](CO)NC(=O)[C@H](C)NC(=O)[C@H](CCSC)NC(=O)[C@H](C)NC(=O)[C@H](CO)NC(=O)[C@@H]2CSSC[C@H](NC(=O)CN)C(=O)N[C@@H](CSSC[C@@H](C(N)=O)NC1=O)C(=O)N[C@@H](CO)C(=O)N[C@@H](Cc1c[nH]cn1)C(=O)N1CCC[C@H]1C(=O)N[C@@H](C(C)C)C(=O)N2` [[+12A]TxID] (HELM PEPTIDE1{G.C.C.S.H.P.V.C.S.A.M.A.S.P.I.C.[am]}$PEPTIDE1,PEPTIDE1,2:R3-8:R3|PEPTIDE1,PEPTIDE1,3:R3-16:R3$$$V2.0), the IC50 (as a rule, the midpoint of a concentration-inhibition curve) at rα6/α3β4 nAChRs was 34 nM; against rα3β4 nAChRs, 49 nM.

For the compound `CC[C@H](C)[C@@H]1NC(=O)[C@@H]2CCCN2C(=O)[C@H](C)NC(=O)[C@H](CO)NC(=O)[C@H](CCSC)NC(=O)[C@H](C)NC(=O)[C@H](CO)NC(=O)[C@@H]2CSSC[C@H](NC(=O)CN)C(=O)N[C@@H](CSSC[C@@H](C(N)=O)NC1=O)C(=O)N[C@@H](CO)C(=O)N[C@@H](Cc1c[nH]cn1)C(=O)N1CCC[C@H]1C(=O)N[C@@H](C(C)C)C(=O)N2` [[+13A]TxID] (HELM PEPTIDE1{G.C.C.S.H.P.V.C.S.A.M.S.A.P.I.C.[am]}$PEPTIDE1,PEPTIDE1,2:R3-8:R3|PEPTIDE1,PEPTIDE1,3:R3-16:R3$$$V2.0), the IC50 against rα6/α3β4 nAChRs came to 64 nM; against rα3β4 nAChRs, 9.9 nM.

Regarding `CC[C@H](C)[C@@H]1NC(=O)[C@@H]2CCCN2C(=O)[C@H](CO)NC(=O)[C@H](CCSC)NC(=O)[C@H](C)NC(=O)[C@H](C)NC(=O)[C@H](CO)NC(=O)[C@@H]2CSSC[C@H](NC(=O)CN)C(=O)N[C@@H](CSSC[C@@H](C(N)=O)NC1=O)C(=O)N[C@@H](CO)C(=O)N[C@@H](Cc1c[nH]cn1)C(=O)N1CCC[C@H]1C(=O)N[C@@H](C(C)C)C(=O)N2` [[+10A]TxID] (HELM PEPTIDE1{G.C.C.S.H.P.V.C.S.A.A.M.S.P.I.C.[am]}$PEPTIDE1,PEPTIDE1,2:R3-8:R3|PEPTIDE1,PEPTIDE1,3:R3-16:R3$$$V2.0), the IC50 was 1130 nM against rα6/α3β4 nAChRs and greater than 10000 nM against rα3β4 nAChRs.

For the compound `CC[C@H](C)[C@@H]1NC(=O)[C@@H]2CCCN2C(=O)[C@H](CO)NC(=O)[C@H](CCSC)NC(=O)[C@H](C)NC(=O)[C@H](CO)NC(=O)[C@@H]2CSSC[C@H](NC(=O)CN)C(=O)N[C@@H](CSSC[C@@H](C(N)=O)NC(=O)[C@H](C)NC1=O)C(=O)N[C@@H](CO)C(=O)N[C@@H](Cc1c[nH]cn1)C(=O)N1CCC[C@H]1C(=O)N[C@@H](C(C)C)C(=O)N2` [[+15A]TxID] (HELM PEPTIDE1{G.C.C.S.H.P.V.C.S.A.M.S.P.I.A.C.[am]}$PEPTIDE1,PEPTIDE1,2:R3-8:R3|PEPTIDE1,PEPTIDE1,3:R3-16:R3$$$V2.0), the IC50 against rα6/α3β4 nAChRs was 37 nM; at rα3β4 nAChRs, 3 nM.

Regarding `CC[C@H](C)[C@@H]1NC(=O)[C@H](C)NC(=O)[C@@H]2CCCN2C(=O)[C@H](CO)NC(=O)[C@H](CCSC)NC(=O)[C@H](C)NC(=O)[C@H](CO)NC(=O)[C@@H]2CSSC[C@H](NC(=O)CN)C(=O)N[C@@H](CSSC[C@@H](C(N)=O)NC1=O)C(=O)N[C@@H](CO)C(=O)N[C@@H](Cc1c[nH]cn1)C(=O)N1CCC[C@H]1C(=O)N[C@@H](C(C)C)C(=O)N2` [[+14A]TxID] (HELM PEPTIDE1{G.C.C.S.H.P.V.C.S.A.M.S.P.A.I.C.[am]}$PEPTIDE1,PEPTIDE1,2:R3-8:R3|PEPTIDE1,PEPTIDE1,3:R3-16:R3$$$V2.0), the IC50 at rα6/α3β4 nAChRs amounted to 368 nM; against rα3β4 nAChRs, 37 nM.

As to `CC[C@H](C)[C@@H]1NC(=O)[C@@H]2CCCN2C(=O)[C@H](CO)NC(=O)[C@H](CCSC)NC(=O)[C@H](C)NC(=O)[C@H](CO)NC(=O)[C@H](C)NC(=O)[C@@H]2CSSC[C@H](NC(=O)CN)C(=O)N[C@@H](CSSC[C@@H](C(N)=O)NC1=O)C(=O)N[C@@H](CO)C(=O)N[C@@H](Cc1c[nH]cn1)C(=O)N1CCC[C@H]1C(=O)N[C@@H](C(C)C)C(=O)N2` [[+9A]TxID] (HELM PEPTIDE1{G.C.C.S.H.P.V.C.A.S.A.M.S.P.I.C.[am]}$PEPTIDE1,PEPTIDE1,2:R3-8:R3|PEPTIDE1,PEPTIDE1,3:R3-16:R3$$$V2.0), on rα6/α3β4 nAChRs, the 50% inhibitory concentration (IC50) was greater than 10000 nM and the “inhibition of rα6/α3β4 nAChRs in words” value is listed as “no obvious inhibition”. Further, on rα3β4 nAChRs, the IC50 was greater than 10000 nM and the “blocking percentage of rα3β4 nAChRs” value is reported as “less than fifty percent”.
